The values below come from the NIST ThermoML archive (doi:10.1021/acs.jced.8b00513).

For the data set the following is noted: 101.33 kPa, Liquid, Vibrating tube method.

Numbers after ± are expanded uncertainties.

`O` [water]: the mass density was determined as 988.035 ± 1 kg/m3 (323.15 K); 985.693 ± 1 kg/m3 (328.15 K); 983.196 ± 0.98 kg/m3 (333.15 K); 980.551 ± 0.98 kg/m3 (338.15 K); 977.765 ± 0.98 kg/m3 (343.15 K).

The mass density is mass per unit of volume.
